Measured values as given in PubChem BioAssay AID330 (DTP/NCI, 2004).
Toxic doses and inconclusive results are not listed. How the source made its calls: active means survival T/C of 150% or more; inactive means T/C below 125% in these data.

Test system: P388 leukemia ip, CD2F1 mice, survival T/C
Assay: NCI In Vivo Anticancer Drug Screen. Data for tumor model P388 Leukemia (intraperitoneal) in CD2F1 (CDF1) mice
Details: endpoint: median survival time, higher = longer survival
Method in brief: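 Mice carrying the transplanted tumor received test compound or vehicle. Survival was recorded in each group, and the value is the treated-group measurement divided by that of the vehicle-treated control group.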

[1] = dose: 100.0 mg/kg/injection, schedule: Q04DX003 (ip), vehicle: saline with Tween-80
[2] = dose: 200.0 mg/kg/injection, schedule: Q04DX003 (ip), vehicle: saline with Tween-80
[3] = dose: 400.0 mg/kg/injection, schedule: Q04DX003 (ip), vehicle: saline with Tween-80
[4] = dose: 50.0 mg/kg/injection, schedule: Q01DX005 (ip), vehicle: Klucel (hydroxypropylcellulose) (HPC)
[5] = dose: 100.0 mg/kg/injection, schedule: Q01DX005 (ip), vehicle: Klucel (hydroxypropylcellulose) (HPC)
[6] = dose: 50.0 mg/kg/injection, schedule: Q01DX009 (ip), vehicle: saline with Tween-80
[7] = dose: 100.0 mg/kg/injection, schedule: Q01DX009 (ip), vehicle: saline with Tween-80
[8] = dose: 60.0 mg/kg/injection, schedule: Q01DX005 (ip), vehicle: saline with Tween-80
[9] = dose: 120.0 mg/kg/injection, schedule: Q01DX005 (ip), vehicle: saline with Tween-80
[10] = dose: 100.0 mg/kg/injection, schedule: Q01DX009 (ip), vehicle: saline
[11] = dose: 200.0 mg/kg/injection, schedule: Q01DX009 (ip), vehicle: saline
[12] = dose: 12.5 mg/kg/injection, schedule: Q01DX009 (ip), vehicle: other
[13] = dose: 25.0 mg/kg/injection, schedule: Q01DX009 (ip), vehicle: other
[14] = dose: 50.0 mg/kg/injection, schedule: Q01DX009 (ip), vehicle: saline
[15] = dose: 50.0 mg/kg/injection, schedule: Q01DX009 (ip), vehicle: Klucel (hydroxypropylcellulose) (HPC)
[16] = dose: 100.0 mg/kg/injection, schedule: Q01DX009 (ip), vehicle: Klucel (hydroxypropylcellulose) (HPC)
[17] = dose: 240.0 mg/kg/injection, schedule: Q01DX005 (ip), vehicle: saline with Tween-80
[18] = dose: 50.0 mg/kg/injection, schedule: Q01DX005 (ip), vehicle: saline with Tween-80
[19] = dose: 100.0 mg/kg/injection, schedule: Q01DX005 (ip), vehicle: saline with Tween-80
[20] = dose: 200.0 mg/kg/injection, schedule: Q01DX005 (ip), vehicle: saline with Tween-80

Measured: T/C

O=C(/C=C/c1ccccc1[N+](=O)[O-])c1ccccc1
inactive: dose: 50.0 mg/kg/injection, schedule: Q04DX003 (ip), vehicle: saline with Tween-80 99 % of control | [1] 101 % of control | [2] 101 % of control | [3] 108 % of control

O=C(CCN1CCC23c4c5ccc(O)c4OC2C(O)C=CC3C1C5)c1ccccc1 (centres undefined)
inactive: [4] 88 % of control | [5] 99 % of control

O=c1c2ccccc2c2ccccc2c(=O)n1-c1cc2c3ccccc3ccc2c2ccccc12
inactive: dose: 60.0 mg/kg/injection, schedule: Q01DX005 (ip), vehicle: Klucel (hydroxypropylcellulose) (HPC) 100 % of control | dose: 120.0 mg/kg/injection, schedule: Q01DX005 (ip), vehicle: Klucel (hydroxypropylcellulose) (HPC) 99 % of control | dose: 240.0 mg/kg/injection, schedule: Q01DX005 (ip), vehicle: Klucel (hydroxypropylcellulose) (HPC) 95 % of control

CC(Cl)C(=O)N/N=C(/c1ccccc1)C(C)(C)C (centres undefined)
inactive: [6] 89 % of control | [7] 86 % of control

CC(=O)OC1C2C3C2C2C1C32 (centres undefined)
inactive: dose: 100.0 mg/kg/injection, schedule: Q04DX002 (ip), vehicle: other 113 % of control | dose: 200.0 mg/kg/injection, schedule: Q04DX002 (ip), vehicle: other 106 % of control | dose: 400.0 mg/kg/injection, schedule: Q04DX002 (ip), vehicle: other 103 % of control

CC1(COc2ccccc2OCC2(C)CO2)CO1 (centres undefined)
inactive: dose: 1.88 mg/kg/injection, schedule: Q01DX005 (ip), vehicle: saline with Tween-80 102 % of control | dose: 3.75 mg/kg/injection, schedule: Q01DX005 (ip), vehicle: saline with Tween-80 100 % of control | dose: 7.5 mg/kg/injection, schedule: Q01DX005 (ip), vehicle: saline with Tween-80 98 % of control | dose: 15.0 mg/kg/injection, schedule: Q01DX005 (ip), vehicle: saline with Tween-80 100 % of control | dose: 30.0 mg/kg/injection, schedule: Q01DX005 (ip), vehicle: saline with Tween-80 100 % of control | [8] 102 % of control | [9] 107 % of control

CCOc1ccc2nc(SCCl)sc2c1
inactive: dose: 25.0 mg/kg/injection, schedule: Q01DX009 (ip), vehicle: saline with Tween-80 101 % of control | [6] 99 % of control | [7] 91 % of control

O=C1OCCOCCOCCOCCOC(=O)C1c1ccccc1
inactive: dose: 100.0 mg/kg/injection, schedule: Q04DX003 (ip), vehicle: Klucel (hydroxypropylcellulose) (HPC) 101 % of control | dose: 200.0 mg/kg/injection, schedule: Q04DX003 (ip), vehicle: Klucel (hydroxypropylcellulose) (HPC) 101 % of control | dose: 400.0 mg/kg/injection, schedule: Q04DX003 (ip), vehicle: Klucel (hydroxypropylcellulose) (HPC) 101 % of control

C/C(=N\NC(N)=O)c1ccc(Cl)c(-n2cccc2)c1
inactive: [4] 92 % of control | [5] 91 % of control | dose: 200.0 mg/kg/injection, schedule: Q01DX005 (ip), vehicle: Klucel (hydroxypropylcellulose) (HPC) 94 % of control

Nc1oc([N+](=O)[O-])cc1[N+](=O)[O-]
inactive: [10] 106 % of control | [11] 118 % of control

C/C=C1\C(=O)OC23C=CC4C(C(=O)OC)C(O)OC(OC12)C43 (centres undefined)
inactive: dose: 0.12 mg/kg/injection, schedule: Q01DX009 (ip), vehicle: saline 89 % of control | dose: 0.25 mg/kg/injection, schedule: Q01DX009 (ip), vehicle: Klucel (hydroxypropylcellulose) (HPC) 100 % of control | dose: 0.25 mg/kg/injection, schedule: Q01DX009 (ip), vehicle: saline 104 % of control | dose: 0.5 mg/kg/injection, schedule: Q01DX009 (ip), vehicle: Klucel (hydroxypropylcellulose) (HPC) 99 % of control | dose: 0.5 mg/kg/injection, schedule: Q01DX009 (ip), vehicle: saline 106 % of control | dose: 1.0 mg/kg/injection, schedule: Q01DX009 (ip), vehicle: Klucel (hydroxypropylcellulose) (HPC) 98 % of control | dose: 1.0 mg/kg/injection, schedule: Q01DX009 (ip), vehicle: saline with Tween-80 106 % of control | dose: 1.0 mg/kg/injection, schedule: Q01DX009 (ip), vehicle: saline 101 % of control | dose: 2.0 mg/kg/injection, schedule: Q01DX009 (ip), vehicle: Klucel (hydroxypropylcellulose) (HPC) 98 % of control | dose: 2.0 mg/kg/injection, schedule: Q01DX009 (ip), vehicle: saline with Tween-80 110 % of control | dose: 4.0 mg/kg/injection, schedule: Q01DX009 (ip), vehicle: saline with Tween-80 107 % of control

C=C(N=[N+]=[N-])c1ccccc1
inactive: dose: 6.25 mg/kg/injection, schedule: Q01DX009 (ip), vehicle: other 101 % of control | [12] 106 % of control | [13] 112 % of control | dose: 50.0 mg/kg/injection, schedule: Q01DX009 (ip), vehicle: other 117 % of control | dose: 100.0 mg/kg/injection, schedule: Q01DX009 (ip), vehicle: other 107 % of control

COC[n+]1cccc(C2CCC[N+]2(C)C)c1 (centres undefined)
inactive: [14] 101 % of control | [10] 107 % of control | [11] 114 % of control

Cc1cc(C)c2nc(N/N=C/c3cccnc3)sc2c1
inactive: [15] 95 % of control | [16] 92 % of control | dose: 200.0 mg/kg/injection, schedule: Q01DX009 (ip), vehicle: Klucel (hydroxypropylcellulose) (HPC) 92 % of control

Nc1nc2nn(-c3ccc(C(=O)NC(CCC(=O)O)C(=O)O)cc3)nc2c(=O)[nH]1 (centres undefined)
inactive: dose: 12.5 mg/kg/injection, schedule: Q01DX009 (ip), vehicle: Klucel (hydroxypropylcellulose) (HPC) 95 % of control | dose: 25.0 mg/kg/injection, schedule: Q01DX009 (ip), vehicle: Klucel (hydroxypropylcellulose) (HPC) 94 % of control | [15] 94 % of control | [16] 96 % of control

CCOC(=O)C(c1ccccc1)C(NC(C)=O)(C(=O)OCC)C(=O)OCC (centres undefined)
inactive: [8] 102 % of control | [9] 102 % of control | [17] 105 % of control

COc1ccc(OC)c(NC(=O)CCCC(=O)CC(=O)C(C)(C)C)c1
inactive: [8] 101 % of control | [9] 104 % of control | [17] 93 % of control

COc1cccc(/C=N/C(/N=C/c2cccc(OC)c2O)c2cccc(OC)c2O)c1O
inactive: [8] 97 % of control | [9] 97 % of control | [17] 102 % of control

CC1(C)C2=CCCC3(OCCO3)C2(C)CCC1O (centres undefined)
inactive: [1] 90 % of control | [2] 90 % of control | [3] 90 % of control

O=C(CCl)N/N=C/c1ccccc1
inactive: [6] 106 % of control | [14] 97 % of control | [7] 107 % of control | [10] 95 % of control | dose: 200.0 mg/kg/injection, schedule: Q01DX009 (ip), vehicle: saline with Tween-80 111 % of control | [11] 96 % of control

COc1ccc(C(O)c2cnc(C)n2Cc2ccccc2)cc1 (centres undefined)
inactive: [8] 99 % of control | [9] 100 % of control | [17] 94 % of control

C1=CN2CC(c3ccccc3)N=C2S1 (centres undefined)
inactive: [12] 99 % of control | [13] 102 % of control

O=C1CCCc2c1ccc1ccccc21
inactive: [18] 100 % of control | [19] 101 % of control | [20] 98 % of control

CC1(C)c2ccccc2-c2nc3ccccc3cc2C1(Br)Br
inactive: [18] 105 % of control | [19] 110 % of control | [20] 120 % of control

CN1C2=NC(=O)NC(=O)C23OC3c2ccccc21 (centres undefined) (tested in a mixture with another compound)
inactive: [4] 102 % of control | [5] 103 % of control

Cc1ccc2c(c1)C=CC(C#N)N2C(=O)OCc1ccccc1 (centres undefined)
inactive: [1] 90 % of control | [2] 95 % of control

Cc1ccc(NC(=S)SCc2ccc([N+](=O)[O-])cc2)cc1C
inactive: dose: 50.0 mg/kg/injection, schedule: Q01DX009 (ip), vehicle: suspension in saline 89 % of control | dose: 100.0 mg/kg/injection, schedule: Q01DX009 (ip), vehicle: suspension in saline 107 % of control | dose: 200.0 mg/kg/injection, schedule: Q01DX009 (ip), vehicle: suspension in saline 101 % of control
